From US20120029418A1, “COMPOSITION AND METHOD FOR PHOTODYNAMIC DISINFECTION” (Advanced Photodynamic Technologies, Inc., priority 2010, published 2012)
Read-outs that look alike come from different tables or passages of the source.

Tests used:
[1] = tested on: polymicrobial biofilms containing MRPA and MRSA; assay: Example I: photodynamic disinfection of polymicrobial biofilm discs; format: cell-based
Description: (§1) An in vitro study was conducted on polymicrobial biofilms containing MRPA and MRSA using the following compositions: (i) compositions each comprising EDTA at one of the following concentrations: 0.5 mM (0.014612% w/v), 0.75 mM, 1.0 mM and 1.25 mM; (ii) composition comprising of methylene blue at a concentration of 0.05% w/v; (iii) compositions each comprising methylene blue at a concentration of 0.05% w/v and EDTA at one of the following concentrations: 0.5 mM, 0.75 mM, 1.0 mM and 1.25 mM. Clinical isolates of MRPA and MRSA were used in this study. Overnight tryptic soy broth (Remel, Lenexa, Kans.) cultures were centrifuged for 15 minutes at 5,000 RPM. The supernatants were removed and the cells washed and resuspended in 1× phosphate buffered saline (PBS) by alternate rounds of centrifugation for 2 minutes at 12.1×g and resuspension. Resulting bacterial suspensions were diluted with PBS to obtain approximately 1.5×10^5 cells/mL of each bacterium measured using a CrystalSpec nephlometer (BD Diagnostic Systems, Sparks, Md.). The suspensions were then combined. […]
(§2) Thereafter, all of the biofilm discs were each placed in a sterile 50 mL centrifuge tube with 1 mL of PBS, vortexed vigorously for one minute. […] The colonies were counted by a Protos automated counter (Synoptics, Frederick, Md.) to determine the total number of viable bacteria and expressed as colony forming units (CFU). […]

planktonic MRPA and MRSA = assay: Example IV: planktonic MRPA and MRSA study; format: cell-based; conditions: for planktonic MRPA and MRSA reduction compared to the control: methylene blue 0.005% w/v, no EDTA
Description: An in vitro study was conducted on planktonic MRPA and MRSA using the following compositions. (i) compositions each comprising EDTA at One of the following concentrations: 0.005 mM, 0.01 mM, 0.025 mM, 0:05 mM (0.0014612% w/v), 0.075 mM (0.0021918% w/v), 0.1 mM, 0.175 mM, 0.25 mM and 0.4 mM (0.0116896% w/v); (ii) composition comprising of methylene blue at a concentration of 0.005% w/v; and (iii) compositions each comprising of methylene blue at a concentration of 0.005% w/v with EDTA at one of the following concentrations: 0.005 mM, 0.01 mM, 0:025 mM, 0.05 mM, 0.075 mM, 0.1 mM 0.175 mM, 0.25 mM and 0.4 mM. The planktonic MRPA and MRSA samples were prepared in the same fashion as described in Example 1 in order to obtain approximately 1.5×10^8 cells/mL of MRPA and approximately 1.5×10^8 cells/mL of MRSA which were then combined.
Each of the compositions discussed above was prepared and then mixed with the combined bacterial solution of MRPA and MRSA and incubated for 30 seconds (“treated samples”). Thereafter, test tubes were prepared each containing 50 μl of one of the treated samples. Some of these test tubes were kept in dark incubation for 400 seconds while the remaining test tubes were exposed to 664 nm light using a non-laser light at a power density of 100 mW/cm^2 and a light energy dose of 10 J/cm^2.
Thereafter, a cotton-tipped swab (Puritan, Guilford, Me.) was dipped into the suspension contained within each test tube, placed in 1 mL of PBS With the stick broken off, and then vortexed for 3-5 seconds (“test samples”). […] The colonies were counted by a Protos automated counter (Synoptics, Frederick, Md.) to determine the number of viable bacteria and expressed as colony forming units (CFU). […] Counts for all experimental and control conditions were averaged and expressed as CFU/ml.
The planktonic MRPA and MRSA reduction rate was calculated as surviving CFU/ml in experimental conditions vs. the control (i.e., test samples that received no treatment) expressed as a log10 reduction from control and shown in FIGS. 6-7.

[2] = tested on: Pseudomonas aeruginosa ATCC # 9027 in polymicrobial biofilms; assay: Example III: polymicrobial biofilm study, Pseudomonas aeruginosa count; format: cell-based; conditions: no EDTA, 669 nm, 72 J/cm^2
Description: An in vitro study was conducted on polymicrobial biofilms containing MRSA and Pseudomonas aeruginosa. Stock cultures of MRSA ATCC # 33592 and Pseudomonas aeruginosa ATCC # 9027 were grown aerobically overnight on tryptic soy agar, harvested individually, and suspended in PBS solution with MRSA at a concentration of ˜2×10^8 CFU/ml and Pseudomonas aeruginosa at a concentration of ˜3×10^6 CFU/ml. Cell densities were measured as a function of absorbance at 420 nm using a Genesys 10 spectrophotometer (Thermo Scientific, Pittsburgh, Pa.). Pseudomonas aeruginosa inocula were then serial diluted in PBS to a concentration of ˜3×10^4 CFU/ml. The two suspended inocula (MRSA and Pseudomonas aeruginosa) were mixed at a ratio of 1:1 and then further diluted 1:40 into tryptic soy broth to achieve the biofilm inoculum of having a MRSA final concentration of ˜2.5×10^6 CFU/ml and Pseudomonas aeruginosa at a final concentration of ˜3.75×10^3 CFU/ml
The biofilm inoculum, prepared as described above, was then pipetted onto 8 mm diameter sterile silicone discs placed inside a 24-well culture plate with 600 μl of the biofilm inoculum per well. The plates were then allowed to shake for 24 hours at 125 rotations per minute using an Innova 200 platform gyrorotary shaker (New Brunswick Scientific Co, Edison N.J.) at 35° C. After 24 hours, all residual liquid from each well was removed and 600 μl of sterile tryptic soy broth was added to each well. […]
Immediately following illumination, the glass cover slip was removed carefully using sterile forceps and biofilm disc surfaces were swabbed using a calcium alginate swab following a reproducible “X” pattern. […] Colony counts were counted separately for each bacterial species (i.e., MRSA and Pseudomonas aeruginosa) providing differentiation of reduction for each of the bacterial species. Counts for all experimental and control conditions were averaged and expressed as CFU/ml. The bacteria reduction rate was calculated as surviving CFU/ml in experimental conditions vs. the control expressed as a log10 reduction from the control. […]

[3] = cited from earlier work
[4] = tested on: polymicrobial biofilms containing MRPA and MRSA; assay: Example II: repeat polymicrobial biofilm study, protocol of Example I; format: cell-based; conditions: FIG. 2; methylene blue 0.05% w/v, no EDTA
Description: as §1, §2

| SMILES | biofilm bacterial count reduction ([1]; EDTA alone at 0.5 mM, 0.75 mM, 1.0 mM and 1.25 mM) | bacterial count reduction (planktonic MRPA and MRSA; EDTA alone at 0.005 mM to 0.4 mM, without light (dark incubation for 400 seconds)) | Pseudomonas aeruginosa reduction compared to the control ([2]; FIG. 3, methylene blue 0.01% w/v) | Pseudomonas aeruginosa reduction compared to the control ([2]; FIG. 4, methylene blue 0.03% w/v) | Pseudomonas aeruginosa reduction compared to the control ([2]; FIG. 5, methylene blue 0.05% w/v) | yield of the singlet oxygen generation ([3]; pH 5) | yield of the singlet oxygen generation ([3]; pH 9) | bacterial reduction compared to the control ([1]; FIG. 1, methylene blue 0.05% w/v, no EDTA, 664 nm, 45 J/cm^2) | bacterial reduction compared to the control [4] | planktonic MRPA and MRSA reduction compared to the control (planktonic MRPA and MRSA; FIG. 6, without any light (dark incubation 400 seconds)) | planktonic MRPA and MRSA reduction compared to the control (planktonic MRPA and MRSA; FIG. 7, with light treatment (664 nm, 10 J/cm^2)) |
| --- | --- | --- | --- | --- | --- | --- | --- | --- | --- | --- | --- |
| O=C(O)CN(CCN(CC(=O)O)CC(=O)O)CC(=O)O [EDTA, ethylenediaminetetraacetic acid] | did not result in any statistically significant biofilm bacterial count reduction | did not result in any statistically significant bacterial count reduction | – | – | – | – | – | – | – | – | – |
| CN(C)c1ccc2nc3ccc(=[N+](C)C)cc-3sc2c1 [methylene blue] | – | – | 2.9 log10 | 2.9 log10 | 2.6 log10 | 0.2 | 0.94 | 2.5 log10 | 3.4 log10 | 2.4 log10 | 3.5 log10 |
